Laboratory results from PubChem BioAssay (NCI).
Several values for one entry are separate records, joined by “and”; a condition that tells them apart may be missing. Identical values can stand only once.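 How tested: cells in 96-well plates exposed to compound for 48 hours at five concentrations. GI50: concentration for 50% inhibition of growth. TGI: concentration producing complete growth inhibition.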

Legend:
Experiment in all cases: NCI tumour cell line growth inhibition, 48 h
A549 NSCLC = system: A549 NSCLC
IGROV1 ovarian = system: IGROV1 ovarian
OVCAR-4 ovarian = system: OVCAR-4 ovarian
K-562 leukemia = system: K-562 leukemia
CAKI-1 renal = system: CAKI-1 renal
SR leukemia = system: SR leukemia
CCRF-CEM leukemia = system: CCRF-CEM leukemia
MALME-3M melanoma = system: MALME-3M melanoma
HT29 colon = system: HT29 colon
EKVX NSCLC = system: EKVX NSCLC

SMILES: COc1cccc(C(=O)O)c1Cc1cccc2ccccc12
- TGI (A549 NSCLC): > 100 µM
- TGI (IGROV1 ovarian): > 100 µM
- TGI (OVCAR-4 ovarian): > 100 µM
- TGI (K-562 leukemia): > 100 µM
- TGI (CAKI-1 renal): > 100 µM
- TGI (SR leukemia): > 100 µM
- TGI (CCRF-CEM leukemia): > 100 µM
- TGI (MALME-3M melanoma): > 100 µM
- TGI (HT29 colon): > 100 µM
- TGI (EKVX NSCLC): > 100 µM

SMILES: CCCCCCCCCCCCCCCC[N+](C)(C)C
- TGI (A549 NSCLC): 0.417 µM and 3.78 µM
- GI50 (IGROV1 ovarian): 0.154 µM
- TGI (IGROV1 ovarian): 0.359 µM
- GI50 (OVCAR-4 ovarian): 0.232 µM and 1.52 µM
- TGI (OVCAR-4 ovarian): 1.03 µM and 5.95 µM
- GI50 (K-562 leukemia): 0.163 µM and 1.17 µM
- TGI (K-562 leukemia): 1.1 µM and 2.83 µM
- GI50 (CAKI-1 renal): 2.05 µM
- TGI (CAKI-1 renal): 10.7 µM
- GI50 (SR leukemia): 0.166 µM
- TGI (SR leukemia): 0.551 µM
- GI50 (CCRF-CEM leukemia): 0.656 µM
- TGI (CCRF-CEM leukemia): 2.44 µM
- GI50 (MALME-3M melanoma): 1.8 µM
- TGI (MALME-3M melanoma): 5.08 µM
- GI50 (HT29 colon): 0.0658 µM and 0.516 µM
- TGI (HT29 colon): 1.03 µM and 1.97 µM
- GI50 (EKVX NSCLC): 0.577 µM and 1.59 µM
- TGI (EKVX NSCLC): 3.17 µM and 4.28 µM

SMILES: CN1CCN(c2ccc3nc(-c4ccc5nc(-c6ccc(C(F)(F)F)cc6)[nH]c5c4)[nH]c3c2)CC1
- GI50 (A549 NSCLC): 1.94 µM
- TGI (A549 NSCLC): 3.91 µM
- GI50 (IGROV1 ovarian): 6.13 µM
- TGI (IGROV1 ovarian): 21.7 µM
- GI50 (OVCAR-4 ovarian): 1.74 µM
- TGI (OVCAR-4 ovarian): 3.45 µM
- GI50 (CAKI-1 renal): 2.97 µM
- TGI (CAKI-1 renal): 15.7 µM
- GI50 (SR leukemia): 1.7 µM
- TGI (SR leukemia): 5.11 µM
- GI50 (CCRF-CEM leukemia): 1.56 µM
- TGI (CCRF-CEM leukemia): 3.68 µM
- GI50 (MALME-3M melanoma): 1.08 µM
- TGI (MALME-3M melanoma): 2.44 µM
- GI50 (HT29 colon): 1.41 µM
- TGI (HT29 colon): 3.13 µM
- GI50 (EKVX NSCLC): 2.06 µM
- TGI (EKVX NSCLC): 4.38 µM

SMILES: C/C(=C\c1ccccc1)C(O)S(=O)(=O)O (stereo unspecified)
- TGI (A549 NSCLC): > 100 µM
- TGI (IGROV1 ovarian): > 100 µM
- TGI (OVCAR-4 ovarian): > 100 µM
- TGI (K-562 leukemia): > 100 µM
- TGI (CAKI-1 renal): > 100 µM
- TGI (SR leukemia): > 100 µM
- TGI (CCRF-CEM leukemia): > 100 µM
- TGI (MALME-3M melanoma): > 100 µM
- TGI (HT29 colon): > 100 µM
- TGI (EKVX NSCLC): > 100 µM

SMILES: S=C1SC2(CCCCCC2)NC2=C1CCCCC2
- TGI (A549 NSCLC): > 100 µM
- TGI (IGROV1 ovarian): > 100 µM
- TGI (OVCAR-4 ovarian): > 100 µM
- TGI (K-562 leukemia): > 100 µM
- TGI (CAKI-1 renal): > 100 µM
- TGI (SR leukemia): 80.4 µM
- TGI (CCRF-CEM leukemia): > 100 µM
- TGI (MALME-3M melanoma): > 100 µM
- TGI (HT29 colon): > 100 µM
- TGI (EKVX NSCLC): 44.2 µM

SMILES: O=C(O)C1(C(=O)O)CCN(S(=O)(=O)c2ccccc2)CC1
- TGI (A549 NSCLC): > 100 µM
- TGI (IGROV1 ovarian): > 100 µM
- TGI (OVCAR-4 ovarian): > 100 µM
- TGI (K-562 leukemia): > 100 µM
- TGI (CAKI-1 renal): > 100 µM
- TGI (SR leukemia): > 100 µM
- TGI (CCRF-CEM leukemia): > 100 µM
- TGI (MALME-3M melanoma): > 100 µM
- TGI (HT29 colon): > 100 µM
- TGI (EKVX NSCLC): > 100 µM

SMILES: O=C1c2ccccc2C(=O)N1C/C=N/NS(=O)(=O)c1ccc(Cl)cc1
- TGI (A549 NSCLC): > 100 µM
- TGI (IGROV1 ovarian): > 100 µM
- TGI (OVCAR-4 ovarian): > 100 µM
- TGI (K-562 leukemia): > 100 µM
- TGI (CAKI-1 renal): > 100 µM
- TGI (SR leukemia): > 100 µM
- TGI (CCRF-CEM leukemia): > 100 µM
- TGI (MALME-3M melanoma): > 100 µM
- TGI (HT29 colon): > 100 µM
- TGI (EKVX NSCLC): > 100 µM

SMILES: COc1cc2c3c(n(CCCn4cccn4)c(=O)c2cc1OC)-c1cc2c(cc1C3=O)OCO2
- GI50 (A549 NSCLC): 2.87 µM
- TGI (A549 NSCLC): > 100 µM
- GI50 (IGROV1 ovarian): 1.8 µM
- TGI (IGROV1 ovarian): 29 µM
- GI50 (OVCAR-4 ovarian): 19.7 µM
- TGI (OVCAR-4 ovarian): 66.1 µM
- GI50 (K-562 leukemia): 3.51 µM
- TGI (K-562 leukemia): > 100 µM
- GI50 (CAKI-1 renal): 0.577 µM
- GI50 (SR leukemia): 0.0465 µM
- TGI (SR leukemia): 1.57 µM
- GI50 (CCRF-CEM leukemia): 0.341 µM
- TGI (CCRF-CEM leukemia): 2.34 µM
- GI50 (MALME-3M melanoma): 9.4 µM
- TGI (MALME-3M melanoma): > 96.7 µM
- GI50 (HT29 colon): 2.56 µM
- TGI (HT29 colon): 25.4 µM
- GI50 (EKVX NSCLC): 8.79 µM
- TGI (EKVX NSCLC): > 53.1 µM

SMILES: CN1C(=O)NC2(O)c3ccccc3C(=O)C12O (stereo unspecified)
- TGI (A549 NSCLC): > 100 µM
- TGI (IGROV1 ovarian): > 100 µM
- TGI (OVCAR-4 ovarian): > 100 µM
- TGI (K-562 leukemia): > 100 µM
- TGI (CAKI-1 renal): > 100 µM
- TGI (SR leukemia): > 100 µM
- TGI (CCRF-CEM leukemia): > 100 µM
- TGI (MALME-3M melanoma): > 100 µM
- TGI (HT29 colon): > 100 µM
- TGI (EKVX NSCLC): > 100 µM
